According to paper PMC2112011 (The Journal of Cell Biology, 1982):

Tested on: C3H cells
Test: Rodlet formation
Assay type: cell-based, mouse
Conditions: 10-20 μM, 1 h

In the case of CC1=C[C@@H]2/C=C(\C)CC[C@H](O)[C@H](O)/C=C/C(=O)[C@]23C(=O)N[C@@H](CC(C)C)[C@@H]3[C@@H]1C [AsD, Aspochalasin D], the “Number of rodlets within a single cell” value is reported as 1-127.
